# Measured values as given in patent US20140332384A1, “BIOMARKERS RELATED WITH A SUPRA-N[…] STATE OF SELENIUM AND DIAGNOSIS METHOD IN WHICH SAID […] IDENTIFIED” (UNIVERSIDAD DE SANTIAGO DE CHILE, priority 2011, published 2014).
# Values joined by “and” are separate entries in the source; they are usually repeats but may differ in a detail not shown here. Equal entries are not always repeated.
# Assays:
# [1] = cited from earlier work
# [2] = Growth of rats based on their body weight; settings: 10 weeks; for Final body weight: in g (unit assumed)
# Description: As illustrated in the various embodiments and examples provided herein, the protein pattern was obtained using blood plasma from Wistar rats, bred in three groups of 8 rats, 21 days of age (4 females and 4 males) each. […] The animals had free access to deionized water and received the respective diet ad libitum. […]
# The animals were kept in stainless steel cages at a controlled temperature equal to 20° C., using 12 hours day/night cycles. After the experimental period (10 weeks), blood samples were collected from each animal by cardiac punction, using standard protocols in heparin tubes. The tubes were inverted 10 times, and immediately placed in an ice bath. The tubes were centrifuged at 1300 RCF at 4° C. during 10 minutes. The plasma was separated from the solids. The supernatant was transferred to a fresh centrifuge tube and was centrifuged at 2400 RCF at 4° C. for 15 minutes. Finally, plasma samples were stored at −80° C. until they were analysed.
# The growth of rats for each group was controlled.
# [3] = system: blood plasma proteins of basic isoelectric point (bands R-2 to R-15); experiment: Protein pattern of blood plasma of an individual treated with dietary supplement seleno methylselenocysteine (Example 2); format: in vivo
# Excerpt: The samples must pass through the stages A and B as described in the preparation of the pattern.
# Step C: Comparing the protein pattern of the reference.
# It compares the SDS-PAGE gel of the sample collected and treated with the protein pattern characteristic of a supranutritional intake of a trace element, in this case, the organic form of selenium as provided in seleno-methyl-selenocysteine, and evaluating the presence of the same bands and its relative abundance in each of the bands.
# A statistical analysis (t-Student with an interval of 95%) is performed to detect significant differences between the relative abundance of the corresponding protein bands between the sample and pattern.
# A sample of plasma from an individual who has undergone treatment with a nutritional dietary supplement seleno methylselenocysteine. This plasma sample was subject to the methodology described above, and the following were the results.
# For comparison, Student's t-test with a confidence interval of 95% confidence was used. […] The interpretation of the results, based on the methodology would be as follows.
# [4] = system: blood plasma proteins of basic isoelectric point (bands R-2 to R-15); experiment: Protein pattern of blood plasma proteins of basic isoelectric point (SDS-PAGE, densitometry) in rats fed supplemented diets; format: in vivo, Wistar rats
# Description: The plasma was separated from the solids.
# For the preparation of the pattern used, individual plasma samples were analyzed by SDS electrophoresis in polyacrylamide gel according to standard protocols. Prior to electrophoretic analysis, plasma samples were fractioned by “batch” adsorption using an ion exchange resin at pH 7.5. The adsorbed fraction was recovered and analyzed by SDS polyacrylamide gel.
# A calibration curve was prepared loading five solutions of different concentrations (0, 0.4, 0.6, 0.8, and 1 mg/ml) [XAOG1]·[A2] of bovine serum albumin (as protein standard) in a polyacrylamide gel, and performing SDS-PAGE analysis under the same conditions and with the same protocol as used to analyse the plasma samples. In each lane a single major band was detected, and between the each lane different band intensity was observed due to the different concentration of the protein loaded (FIGS. 2-5). The optical density of each band was determined, as the protein concentration was known in each solution loaded in the different lanes, a linear equation was drawn which correlates the concentration with the intensity of the bands.
# The concentration of protein was quantified in each band via optical densitometry and subsequent interpolation in the calibration curve. The concentration average and standard deviation for each band was calculated, considering the 8 samples of each group (controls and experimental). A comparison was made using the Student statistical t-test with a confidence interval 95% to detect significant differences in each band between the experimental and control groups.
# The reference pattern for protein corresponds to the set of plasma proteins of basic isoelectric point obtained and separated by the following methodology.
# Stage A: Chromatographic Fractionation of Plasma Proteins Basic Isoelectric Point.
# 1. Resuspend the cationic exchange resin, carefully turning the package containing the resin. When total homogenization is achieved, a certain volume of suspension is taken, between 50 and 500 μL, preferably between 50 and 200 μL, more preferably 100 μL.
# 2. Mix in a microcentrifuge tube around 50 to 500 μL, preferably between 50 and 200 μL, more preferably 100 μL of plasma with a 1:9 proportional amount of buffer pH 7.5, until a ionic strength equal to 0.1M, is attained, this is if you take 100 μL of plasma, 900 μL buffer must be added to achieve a 1:10 dilution, and obtain a plasma protein solution with an ionic strength equivalent to 0.09 to 0.1M of NaCl.
# 3. To prepare the cationic exchange resin, it is necessary to decant the resin from the original suspension volume, discarding the supernatant and washing the resin by adding an amount equivalent to the discarded supernatant buffer pH 7.5 plus 0.1M NaCl, repeating the procedure 3 times.
# The protein sample obtained from stage 2 is added and mixed gently homogenizing it for 30 minutes and the resin is separated from the supernatant, the supernatant is discarded and the resin is washed with the same volume of pH 7.5 buffer plus 0.1M NaCl, three times. The adsorbed proteins are eluted by adding a suitable volume, preferably between 40 and 80 μL, more preferably 50 µL of pH 7.5 buffer over 1M NaCl, homogenized, the resin is separated from the supernatant, and finally supernatant is recuperated, which corresponds to the fraction of plasma proteins with a basic isoelectric point.
# Stage B: Electrophoretic separation of plasma proteins of a basic isoelectric point.
# A 12% polyacrylamide gel is prepared, according to standard protocols. A 20 μl of the sample obtained in item 3 and 5 μL of loading buffer (standard composition for SDS analysis) is subject to denaturation by heat. The denatured mixture is loaded into a lane and the electrophoretic run is performed, for a total of 160 Vh. The electrophoresis system is disassembled and the gel is recovered. […]
# [5] = Sodium Selenate (1.5 μg) diet, females, average
# [6] = Sodium Selenate (1.5 μg) diet, females, individual rats
# [7] = Sodium Selenate (1.5 μg) diet, group average
# [8] = Sodium Selenate (1.5 μg) diet, males, average
# [9] = Sodium Selenate (1.5 μg) diet, males, individual rats
# [10] = Sodium Selenate (1.9 μg) diet, females, average
# [11] = Sodium Selenate (1.9 μg) diet, females, individual rats
# [12] = Sodium Selenate (1.9 μg) diet, group average
# [13] = Sodium Selenate (1.9 μg) diet, males, average
# [14] = Sodium Selenate (1.9 μg) diet, males, individual rats
# [15] = SMSeC (1.9 μg) diet, females, average
# [16] = SMSeC (1.9 μg) diet, females, individual rats
# [17] = SMSeC (1.9 μg) diet, group average
# [18] = SMSeC (1.9 μg) diet, males, average
# [19] = SMSeC (1.9 μg) diet, males, individual rats
# [20] = rat blood plasma, basic isoelectric point fraction, diet with 1.9 μg SMSeC per gram, 10 weeks, average ± standard deviation, [UA] in Tables 4, 5
# [21] = rats fed 1.9 μg seleno-methyl-selenocysteine per g of diet, Student t-test, confidence interval 95%
compound,measurement,setting,value
[Se] [selenium],Maximum Tolerable Intake,[1]; adult women and adult men,400 µg/day
same,Selenium content of a food diet that could produce toxic effects,"[1]; estimated, per kg of food diet",more than 1 mg per kg
"O=[Se](=O)(O)O [Sodium Selenate, sodium selenate]",Delta body weight,[2]; [5],151.1
same,Final body weight,[2]; [5],199.5
same,Delta body weight,[2]; [6],141.6 and 135.5 and 139.3 and 187.8
same,Final body weight,[2]; [6],189.8 and 184.2 and 188.3 and 235.7
same,Delta body weight,[2]; [7],207.8
same,Final body weight,[2]; [7],256.7
same,Delta body weight,[2]; [8],264.6
same,Final body weight,[2]; [8],313.8
same,Delta body weight,[2]; [9],266.6 and 275.8 and 271.2 and 244.9
same,Final body weight,[2]; [9],316.8 and 326.3 and 318.5 and 293.5
same,Delta body weight,[2]; [10],161.2
same,Final body weight,[2]; [10],209.7
same,Delta body weight,[2]; [11],180.4 and 161.3 and 145.1 and 158.1
same,Final body weight,[2]; [11],228.6 and 210 and 194.1 and 206
same,Delta body weight,[2]; [12],218.0
same,Final body weight,[2]; [12],266.9
same,Delta body weight,[2]; [13],274.8
same,Final body weight,[2]; [13],324
same,Delta body weight,[2]; [14],293.1 and 278.3 and 291.9 and 235.9
same,Final body weight,[2]; [14],343.3 and 328.8 and 339.2 and 284.5
"C[Se]C[C@H](N)C(=O)O [SMSeC, seleno-methyl-selenocysteine]",Delta body weight,[2]; [15],168.3
same,Final body weight,[2]; [15],216.7
same,Delta body weight,[2]; [16],161.1 and 160.2 and 172.4 and 179.3
same,Final body weight,[2]; [16],208.6 and 210.3 and 222.2 and 225.5
same,Delta body weight,[2]; [17],211.5
same,Final body weight,[2]; [17],260.4
same,Delta body weight,[2]; [18],254.7
same,Final body weight,[2]; [18],304
same,Delta body weight,[2]; [19],245.1 and 256.8 and 275.8 and 241.0
same,Final body weight,[2]; [19],296.5 and 308.7 and 322.6 and 287.9
same,"Relative abundance [UA] of the individual, band R-2",[3],29498.0 ± 3911.5 UA
same,"Relative abundance [UA] of the individual, band R-3",[3],22594.0 ± 4569.2 UA
same,"Relative abundance [UA] of the individual, band R-4",[3],21994.3 ± 4211.0 UA
same,"Relative abundance [UA] of the individual, band R-5",[3],25682.7 ± 3620.9 UA
same,"Relative abundance [UA] of the individual, band R-6",[3],30751.3 ± 2974.0 UA
same,"Relative abundance [UA] of the individual, band R-7",[3],37560.8 ± 2955.7 UA
same,"Relative abundance [UA] of the individual, band R-8",[3],28124.3 ± 6466.9 UA
same,"Relative abundance [UA] of the individual, band R-9",[3],41211.3 ± 5952.4 UA
same,"Relative abundance [UA] of the individual, band R-10",[3],14666.6 ± 3087.2 UA
same,"Relative abundance [UA] of the individual, band R-11",[3],13964.4 ± 1750.0 UA
same,"Relative abundance [UA] of the individual, band R-12",[3],52073.0 ± 4308.2 UA
same,"Relative abundance [UA] of the individual, band R-13",[3],15414.1 ± 5568.9 UA
same,"Relative abundance [UA] of the individual, band R-14",[3],41436.1 ± 2906.9 UA
same,"Relative abundance [UA] of the individual, band R-15",[3],12009.5 ± 6939.5 UA
same,Relative abundance of band R-2 (H inhibitory factor complement) of the pattern,[4]; [20],28498 ± 3911.5 arbitrary units
same,Relative abundance of band R-3 (H inhibitory factor complement) of the pattern,[4]; [20],20594.0 ± 4569.2 arbitrary units
same,Relative abundance of band R-4 (CRA f isophorm plasminogen) of the pattern,[4]; [20],21804.3 ± 4211.0 arbitrary units
same,Relative abundance of band R-5 (LOC366747 Protein) of the pattern,[4]; [20],24582.7 ± 3620.9 arbitrary units
same,Relative abundance of band R-6 (4a component complement) of the pattern,[4]; [20],29751.3 ± 2974.0 arbitrary units
same,Relative abundance of band R-7 (Albumina) of the pattern,[4]; [20],37380.8 ± 2955.7 arbitrary units
same,Relative abundance of band R-8 (Da 1-24) of the pattern,[4]; [20],27224.3 ± 6466.9 arbitrary units
same,Relative abundance of band R-9 (2C chainCregion Ig Gamma) of the pattern,[4]; [20],40411.3 ± 5952.4 arbitrary units
same,Relative abundance of band R-10 (Precursor β-2-glicoprotein 1) of the pattern,[4]; [20],14366.6 ± 3087.2 arbitrary units
same,Relative abundance of band R-11 (2A Region C Ig Gamma chain) of the pattern,[4]; [20],14644.4 ± 1750.0 arbitrary units and 14064.4 ± 1750.0 arbitrary units
same,Relative abundance of band R-12 (4a component complement) of the pattern,[4]; [20],51973.0 ± 4308.2 arbitrary units
same,Relative abundance of band R-13 (Heavy chain H4 inter α inhibitor) of the pattern,[4]; [20],13414.1 ± 5568.9 arbitrary units
same,Relative abundance of band R-14 (Ig Kappa precursor) of the pattern,[4]; [20],40436.1 ± 2906.9 arbitrary units
same,Relative abundance of band R-15 (H apolipoprotein) of the pattern,[4]; [20],11309.5 ± 6939.5 arbitrary units
same,Concentration of protein in band R-10 compared with basal diet plus 0.15 μg sodium selenate per gram of diet,[4]; [21],significantly higher
same,Concentration of protein in band R-11 compared with basal diet plus 0.15 μg sodium selenate per gram of diet,[4]; [21],significantly higher
same,Concentration of protein in band R-12 compared with basal diet plus 0.15 μg sodium selenate per gram of diet,[4]; [21],significantly higher
same,Concentration of protein in band R-13 compared with basal diet plus 0.15 μg sodium selenate per gram of diet,[4]; [21],significantly higher
same,Concentration of protein in band R-15 compared with basal diet plus 0.15 μg sodium selenate per gram of diet,[4]; [21],significantly higher
same,Concentration of protein in band R-3 compared with both control groups,"[4]; rats fed 1.9 μg seleno-methyl-selenocysteine per gram of diet, Student t-test, confidence interval 95%",significantly higher
